The compounds below were run against T1, human vasopressin V1b receptor (Homo sapiens, UniProt P47901) (assay: Vasopressin V1b receptor binding test). Conditions: membranes of CHO-K1 cells with human V1b receptor, displacement of 1.5 nM 3H-AVP; for compounds with more than one stereogenic center the diastereomer with greater affinity.
T1 construct: expressed in transfected cells; host or cells: CHO-K1 (cell line hV1b_3H2_CHO), membrane preparation
T1 sequence (P47901 1-424): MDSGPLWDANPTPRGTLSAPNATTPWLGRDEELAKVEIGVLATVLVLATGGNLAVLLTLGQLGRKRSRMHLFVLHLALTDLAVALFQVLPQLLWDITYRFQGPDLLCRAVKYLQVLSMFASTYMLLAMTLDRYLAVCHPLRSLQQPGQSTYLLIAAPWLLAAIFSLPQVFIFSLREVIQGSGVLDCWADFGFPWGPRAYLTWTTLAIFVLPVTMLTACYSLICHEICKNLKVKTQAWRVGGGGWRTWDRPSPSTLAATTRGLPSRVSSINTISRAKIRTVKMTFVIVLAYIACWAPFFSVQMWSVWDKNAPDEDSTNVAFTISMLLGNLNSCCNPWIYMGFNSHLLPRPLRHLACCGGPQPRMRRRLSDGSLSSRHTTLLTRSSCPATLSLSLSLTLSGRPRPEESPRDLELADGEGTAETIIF
Procedure, shortened: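 Affinity constants (Ki) came from nonlinear regression of triplicate scintillation counts after filtration separated bound from free radioligand. Compounds competed at human V1b membranes for 60 min, room temperature, in pH 7.4 tris/MgCl2/BSA buffer with 2% DMSO; 1 μM AVP defined nonspecific binding.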

| Compound | Ki [nM] |
| --- | --- |
| COc1cc(CN(C)C)ccc1C1(N2C[C@H](O)C[C@H]2c2ncco2)C(=O)N(S(=O)(=O)c2ccc(C#N)cc2)c2ccc(Cl)cc21 (stereo partly drawn) [Example 182, 5-Chloro-3-(4-dimethylaminomethyl-2-methoxyphenyl)-3-((2S,4R)-4-hydroxy-2-oxazol-2-yl-pyrrolidin-1-yl)-1-(4-cyanobenzenesulfonyl)-1,3-dihydroindol-2-one] | 10 to 100 |
| COc1cc(CN2CCCC2)ccc1C1(N2C[C@H](O)C[C@H]2c2ncco2)C(=O)N(S(=O)(=O)c2ccc(C#N)cc2)c2ccc(Cl)cc21 (stereo partly drawn) [Example 183, 5-Chloro-3-((2S,4R)-4-hydroxy-2-oxazol-2-yl-pyrrolidin-1-yl)-3-(2-methoxy-4-(pyrrolidin-1-ylmethyl)phenyl)-1-(4-cyanobenzenesulfonyl)-1,3-dihydroindol-2-one] | 10 to 100 |
| CNCc1cc2c(c(C3(N4CCC[C@H]4c4ncco4)C(=O)N(S(=O)(=O)c4ccc(OC)cc4)c4ccc(Cl)cc43)c1)OCO2 (stereo partly drawn) [Example 185, 5-Chloro-1-(4-methoxybenzenesulfonyl)-3-(6-methylaminomethylbenzo[1,3]dioxol-4-yl)-3-((S)-2-oxazol-2-yl-pyrrolidin-1-yl)-1,3-dihydroindol-2-one] | 10 to 100 |
| COc1ccc(S(=O)(=O)N2C(=O)C(c3cc(CN(C)C)cc4c3OCO4)(N3CCC[C@H]3c3ncco3)c3cc(Cl)ccc32)cc1 (stereo partly drawn) [Example 186, 5-Chloro-3-(6-dimethylaminomethylbenzo[1,3]dioxol-4-yl)-1-(4-methoxybenzenesulfonyl)-3-((S)-2-oxazol-2-yl-pyrrolidin-1-yl)-1,3-dihydroindol-2-one] | 10 to 100 |
| CCNCc1ccc(C2(N3C[C@H](O)C[C@H]3c3ncco3)C(=O)N(S(=O)(=O)c3ccc(C#N)cc3)c3ccc(Cl)cc32)c(OC)c1 (stereo partly drawn) [Example 189, 5-Chloro-3-(4-ethylaminomethyl-2-methoxyphenyl)-3-((2S,4R)-4-hydroxy-2-oxazol-2-yl-pyrrolidin-1-yl)-1-(4-cyanobenzenesulfonyl)-1,3-dihydroindol-2 one] | 10 to 100 |
| CNCc1ccc(C2(N3C[C@H](O)C[C@H]3c3ncco3)C(=O)N(S(=O)(=O)c3ccc(C#N)cc3)c3ccc(Cl)cc32)c(OC)c1 (stereo partly drawn) [Example 190, 5-Chloro-3-((2S,4R)-4-hydroxy-2-oxazol-2-yl-pyrrolidin-1-yl)-3-(2-methoxy-4-methylaminomethylphenyl)-1-(4-cyanobenzenesulfonyl)-1,3-dihydroindol-2 one] | 10 to 100 |
| COc1ccc(S(=O)(=O)N2C(=O)C(c3cccc(CN(C)C)c3OC)(N3CCC[C@H]3c3ncco3)c3cc(Cl)ccc32)cc1 (stereo partly drawn) [Example 194, 5-Chloro-3-(3-dimethylaminomethyl-2-methoxyphenyl)-1-(4-methoxybenzenesulfonyl)-3-((S)-2-oxazol-2-yl-pyrrolidin-1-yl)-1,3-dihydroindol-2-one] | 10 to 100 |
| COc1ccc(S(=O)(=O)N2C(=O)C(c3cccc(CN4CCCC4)c3OC)(N3CCC[C@H]3c3ncco3)c3cc(Cl)ccc32)cc1 (stereo partly drawn) [Example 195, 5-Chloro-1-(4-methoxybenzenesulfonyl)-3-(2-methoxy-3-pyrrolidin-1-ylmethylphenyl)-3-((S)-2-oxazol-2-yl-pyrrolidin-1-yl)-1,3-dihydroindol-2-one] | 100 to 1000 |
| COc1cc(CN2CCN(CCO)CC2)ccc1C1(N2CCC[C@H]2c2ncco2)C(=O)N(S(=O)(=O)c2ccc(C#N)cc2)c2ccc(Cl)cc21 (stereo partly drawn) [Example 197, 5-Chloro-1-(4-cyanobenzenesulfonyl)-3-{4-[4-(2-hydroxyethyl)piperazin-1-ylmethyl]-2-methoxyphenyl}-3-((S)-2-oxazol-2-yl-pyrrolidin-1-yl)-2,3-dihydroindol-2-one] | 10 to 100 |
| CCN1CCN(Cc2ccc(C3(N4CCC[C@H]4c4ncco4)C(=O)N(S(=O)(=O)c4ccc(OC)cc4)c4ccc(Cl)c(F)c43)c(OC)c2)CC1 (stereo partly drawn) [Example 199, 5-Chloro-3-[4-(4-ethylpiperazin-1-ylmethyl)-2-methoxyphenyl]-4-fluoro-1-(4-methoxybenzenesulfonyl)-3-((S)-2-oxazol-2-yl-pyrrolidin-1-yl)-1,3-dihydroindol-2-one] | < 10 |

Other lines, results leading:

| Ki [nM] | Compound |
| --- | --- |
| < 10 | CCCNCc1ccc(OC)c(C2(N3C[C@H](O)C[C@H]3c3ncco3)C(=O)N(S(=O)(=O)c3ccc(OC)cc3)c3ccc(C#N)cc32)c1 (stereo partly drawn) [Example 177, 5-Cyano-3-((2S,4R)-4-hydroxy-2-oxazol-2-yl-pyrrolidin-1-yl)-1-(4-methoxybenzenesulfonyl)-3-(2-methoxy-5-propylaminomethylphenyl)-1,3-dihydroindol-2-one] |
| < 10 | COc1ccc(S(=O)(=O)N2C(=O)C(c3ccc(CN4CCN(C)CC4)cc3OC)(N3C[C@H](O)C[C@H]3c3ncco3)c3cc(C#N)ccc32)cc1 (stereo partly drawn) [Example 178, 5-Cyano-3-((2S,4R)-4-hydroxy-2-oxazol-2-yl-pyrrolidin-1-yl)-1-(4-methoxybenzenesulfonyl)-3-[2-methoxy-4-(4-methylpiperazin-1-ylmethyl)phenyl]-1,3-dihydroindol-2-one] |
| < 10 | CCN1CCN(Cc2ccc(C3(N4C[C@H](O)C[C@H]4c4ncco4)C(=O)N(S(=O)(=O)c4ccc(OC)cc4)c4ccc(C#N)cc43)c(OC)c2)CC1 (stereo partly drawn) [Example 179, 5-Cyano-3-[4-(4-ethylpiperazin-1-ylmethyl)-2-methoxyphenyl]-3-((2S,4R)-4-hydroxy-2-oxazol-2-yl-pyrrolidin-1-yl)-1-(4-methoxybenzenesulfonyl)-1,3-dihydroindol-2-one] |
| < 10 | COc1cc(CN2CCN(C)CC2)ccc1C1(N2C[C@H](O)C[C@H]2c2ncco2)C(=O)N(S(=O)(=O)c2ccc(C#N)cc2)c2ccc(Cl)cc21 (stereo partly drawn) [Example 180, 5-Chloro-3-((2S,4R)-4-hydroxy-2-oxazol-2-yl-pyrrolidin-1-yl)-3-[2-methoxy-4-(4-methylpiperazin-1-ylmethyl)phenyl]-1-(4-cyanobenzenesulfonyl)-1,3-dihydroindol-2-one] |
| < 10 | CCN1CCN(Cc2ccc(C3(N4C[C@H](O)C[C@H]4c4ncco4)C(=O)N(S(=O)(=O)c4ccc(C#N)cc4)c4ccc(Cl)cc43)c(OC)c2)CC1 (stereo partly drawn) [Example 181, 5-Chloro-3-[4-(4-ethylpiperazin-1-ylmethyl)-2-methoxyphenyl]-3-((2S,4R)-4-hydroxy-2-oxazol-2-yl-pyrrolidin-1-yl)-1-(4-cyanobenzenesulfonyl)-1,3-dihydroindol-2-one] |
| < 10 | COc1ccc(S(=O)(=O)N2C(=O)C(c3cc(CN4CCN(C)CC4)cc4c3OCO4)(N3CCC[C@H]3c3ncco3)c3cc(Cl)ccc32)cc1 (stereo partly drawn) [Example 184, 5-Chloro-1-(4-methoxybenzenesulfonyl)-3-[6-(4-methylpiperazin-1-ylmethyl)benzo[1,3]dioxol-4-yl]-3-((S)-2-oxazol-2-yl-pyrrolidin-1-yl)-1,3-dihydroindol-2-one] |
| < 10 | COc1ccc(S(=O)(=O)N2C(=O)C(c3cc(CNC(C)C)cc4c3OCO4)(N3CCC[C@H]3c3ncco3)c3cc(Cl)ccc32)cc1 (stereo partly drawn) [Example 187, 5-Chloro-3-[6-(isopropylaminomethyl)benzo[1,3]dioxol-4-yl]-1-(4-methoxybenzenesulfonyl)-3-((S)-2-oxazol-2-yl-pyrrolidin-1-yl)-1,3-dihydroindol-2-one] |
| < 10 | CCNCc1cc2c(c(C3(N4CCC[C@H]4c4ncco4)C(=O)N(S(=O)(=O)c4ccc(OC)cc4)c4ccc(Cl)cc43)c1)OCO2 (stereo partly drawn) [Example 188, 5-Chloro-3-(6-ethylaminomethylbenzo[1,3]dioxol-4-yl)-1-(4-methoxybenzenesulfonyl)-3-((S)-2-oxazol-2-yl-pyrrolidin-1-yl)-1,3-dihydroindol-2-one] |
| < 10 | COc1ccc(S(=O)(=O)N2C(=O)C(c3cc(CN4CCC(O)CC4)ccc3OC)(N3CCC[C@H]3c3ncco3)c3cc(C#N)ccc32)cc1 (stereo partly drawn) [Example 191, 5-Cyano-3-[5-(4-hydroxypiperidin-1-ylmethyl)-2-methoxyphenyl]-1-(4-methoxybenzenesulfonyl)-3-((S)-2-oxazol-2-yl-pyrrolidin-1-yl)-1,3-dihydroindol-2-one] |
| < 10 | COc1ccc(S(=O)(=O)N2C(=O)C(c3cccc(CN4CCN(C)CC4)c3OC)(N3CCC[C@H]3c3ncco3)c3cc(Cl)ccc32)cc1 (stereo partly drawn) [Example 192, 5-Chloro-1-(4-methoxybenzenesulfonyl)-3-[2-methoxy-3-(4-methylpiperazin-1-ylmethyl)phenyl]-3-((S)-2-oxazol-2-yl-pyrrolidin-1-yl)-1,3-dihydroindol-2-one] |
| < 10 | CCN1CCN(Cc2ccc(C3(N4CCC[C@H]4c4ncco4)C(=O)N(S(=O)(=O)c4ccc(OC)cc4)c4cc(F)c(Cl)cc43)c(OC)c2)CC1 (stereo partly drawn) [Example 193, 5-Chloro-3-[4-(4-ethylpiperazin-1-ylmethyl)-2-methoxyphenyl]-6-fluoro-1-(4-methoxybenzenesulfonyl)-3-((S)-2-oxazol-2-yl-pyrrolidin-1-yl)-1,3-dihydroindol-2-one] |
| < 10 | COc1ccc(S(=O)(=O)N2C(=O)C(c3cc(CN4CCN(C)CC4)ccc3OC)(N3CCC[C@H]3c3ncco3)c3cc(Cl)c(F)cc32)cc1 (stereo partly drawn) [Example 198, 5-Chloro-6-fluoro-1-(4-methoxybenzenesulfonyl)-3-[2-methoxy-5-(4-methylpiperazin-1-ylmethyl)phenyl]-3-((S)-2-oxazol-2-yl-pyrrolidin-1-yl)-1,3-dihydroindol-2-one] |

From patent publication US8044079B2, “Substituted oxindole derivatives, medicaments containing said derivatives and use thereof” (Abbott GmbH & Co. KG, priority 2005, dated 2011)
